Measured values from patent US20250368649A1, “TETRAHYDROPYRIDOPYRIMIDINE PAN-KRAS INHIBITORS” (Mirati Therapeutics, Inc., priority 2022, published 2025).

Columns and labels:
[1] = target: KRas WT (Homo sapiens, UniProt P01116); test: KRas binding assay (TR-FRET displacement), KRas WT; conditions: for inhibition at 0.01 µM: single point, 10 nM compound
[2] = target: KRas G12C (Homo sapiens, UniProt P01116, G12C); format: binding; conditions: for inhibition at 0.01 µM: single point, 10 nM compound, read-out: Binding to KRas (% inhibition at 10 nM) G12C
[3] = target: KRas G12S (Homo sapiens, UniProt P01116, G12S); format: binding; conditions: for inhibition at 0.01 µM: single point, 10 nM compound, read-out: Binding to KRas (% inhibition at 10 nM) G12S
[4] = tested on: MKN1 cells; test: Inhibition of KRas-mediated phosphorylation of ERK (Cisbio HTRF pERK), MKN1 cells; format: cell-based; conditions: Homo sapiens
Outline: (§1)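 Seeding density of 6,000 cells per well was used, with cultures kept in RPMI/10% FBS from day 1.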

[5] = tested on: PSN1 cells; test: Inhibition of KRas-mediated phosphorylation of ERK (Cisbio HTRF pERK), PSN1 cells; format: cell-based; conditions: Homo sapiens, PSN1, 3 h
Outline: as §1

[6] = tested on: ASPC1 cells; test: Inhibition of KRas-mediated phosphorylation of ERK (Cisbio HTRF pERK), ASPC1 cells; format: cell-based; conditions: Homo sapiens, AsPC-1 cells; for IC50: ASPC1, 3 h, 3 hr compound incubation; for inhibition at 0.1 µM: ASPC1, single point at 100 nM, 3 hrs compound incubation
[7] = tested on: H727 cells; test: Inhibition of KRas-mediated phosphorylation of ERK (Cisbio HTRF pERK), H727 cells; format: cell-based; conditions: Homo sapiens; for IC50: NCI-H727, 3 h, 3 hr compound incubation; for inhibition at 0.1 µM: NCI-H727, single point at 100 nM, 3 hrs compound incubation
[8] = tested on: A549 cells; test: Inhibition of KRas-mediated phosphorylation of ERK (Cisbio HTRF pERK), A549 cells; format: cell-based; conditions: Homo sapiens; for IC50: A549, 3 h, 3 hr compound incubation; for inhibition at 0.1 µM: single point at 100 nM, 3 hrs compound incubation
[9] = tested on: H460 cells; test: Inhibition of KRas-mediated phosphorylation of ERK (Cisbio HTRF pERK), H460 cells; format: cell-based; conditions: Homo sapiens; for IC50: NCI-H460, 3 h, 3 hr compound incubation; for inhibition at 0.1 µM: NCI-H460, single point at 100 nM, 3 hrs compound incubation
[10] = tested on: HCT116 cells; test: Inhibition of KRas-mediated phosphorylation of ERK (Cisbio HTRF pERK), HCT116 cells; format: cell-based; conditions: Homo sapiens; for IC50: HCT-116, 3 h, 3 hr compound incubation; for inhibition at 0.1 µM: HCT-116, single point at 100 nM, 3 hrs compound incubation
[11] = tested on: H358 cells; test: Inhibition of KRas-mediated phosphorylation of ERK (Cisbio HTRF pERK), H358 cells; format: cell-based; conditions: Homo sapiens; for IC50: NCI-H358, 3 h, 3 hr compound incubation; for inhibition at 0.1 µM: NCI-H358, single point at 100 nM, 3 hrs compound incubation
[12] = tested on: H2009 cells; test: Inhibition of KRas-mediated phosphorylation of ERK (Cisbio HTRF pERK), H2009 cells; format: cell-based; conditions: Homo sapiens, NCI-H2009, 3 hr compound incubation
[13] = target: KRas G12D (Homo sapiens, UniProt P01116, G12D); test: biochemical; conditions: Binding to KRas (IC50 nM) G12D, TR-FRET displacement, KRas G12D
[14] = target: KRas G12V (Homo sapiens, UniProt P01116, G12V); test: biochemical; conditions: Binding to KRas (IC50 nM) G12V, TR-FRET displacement, KRas G12V
[15] = target: KRas G12A (Homo sapiens, UniProt P01116, G12A); format: binding; conditions: single point, 10 nM compound, read-out: Binding to KRas (% inhibition at 10 nM) G12A
[16] = target: KRas G13D (Homo sapiens, UniProt P01116, G13D); format: binding; conditions: single point, 10 nM compound, read-out: Binding to KRas (% inhibition at 10 nM) G13D
[17] = target: KRas Q61H (Homo sapiens, UniProt P01116, Q61H); test: KRas binding assay (TR-FRET displacement), KRas Q61H; conditions: single point, 10 nM compound
[18] = target: KRas G12R (Homo sapiens, UniProt P01116, G12R); test: biochemical; conditions: Binding to KRas (IC50 nM) G12R, TR-FRET displacement, KRas G12R
[19] = MKN-1, 3 hour compound incubation, Cisbio pERK HTRF
[20] = 3 hour compound incubation, Cisbio pERK HTRF

KRas Q61H, sequence (P01116 1-169 isoform P01116-2 Q61H): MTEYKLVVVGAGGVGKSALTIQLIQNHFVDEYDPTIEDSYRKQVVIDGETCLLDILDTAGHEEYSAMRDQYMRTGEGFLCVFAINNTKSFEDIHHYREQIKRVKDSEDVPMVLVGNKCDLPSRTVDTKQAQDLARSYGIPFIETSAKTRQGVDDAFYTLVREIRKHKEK
KRas G12A, sequence (P01116 1-169 isoform P01116-2 G12A): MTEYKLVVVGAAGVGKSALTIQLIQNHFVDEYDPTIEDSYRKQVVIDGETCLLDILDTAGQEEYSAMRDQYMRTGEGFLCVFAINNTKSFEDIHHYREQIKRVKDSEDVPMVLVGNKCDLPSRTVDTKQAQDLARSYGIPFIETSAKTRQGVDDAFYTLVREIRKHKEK
KRas G12S, sequence (P01116 1-169 isoform P01116-2 G12S): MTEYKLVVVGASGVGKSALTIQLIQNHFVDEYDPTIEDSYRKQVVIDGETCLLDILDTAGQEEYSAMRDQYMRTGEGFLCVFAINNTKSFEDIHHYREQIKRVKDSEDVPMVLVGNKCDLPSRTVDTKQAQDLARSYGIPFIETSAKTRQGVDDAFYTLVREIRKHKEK
KRas G12V, sequence (P01116 1-169 isoform P01116-2 G12V): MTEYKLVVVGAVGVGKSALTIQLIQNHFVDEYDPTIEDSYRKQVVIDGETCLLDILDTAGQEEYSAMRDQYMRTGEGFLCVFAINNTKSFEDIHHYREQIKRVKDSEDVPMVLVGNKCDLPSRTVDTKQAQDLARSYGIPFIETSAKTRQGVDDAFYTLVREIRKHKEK
KRas G12R, sequence (P01116 1-169 isoform P01116-2 G12R): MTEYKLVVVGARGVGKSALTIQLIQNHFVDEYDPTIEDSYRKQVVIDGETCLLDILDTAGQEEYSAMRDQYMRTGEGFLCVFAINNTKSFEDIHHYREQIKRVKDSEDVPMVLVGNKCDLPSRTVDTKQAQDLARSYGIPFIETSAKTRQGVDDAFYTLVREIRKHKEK
KRas G13D, sequence (P01116 1-169 isoform P01116-2 G13D): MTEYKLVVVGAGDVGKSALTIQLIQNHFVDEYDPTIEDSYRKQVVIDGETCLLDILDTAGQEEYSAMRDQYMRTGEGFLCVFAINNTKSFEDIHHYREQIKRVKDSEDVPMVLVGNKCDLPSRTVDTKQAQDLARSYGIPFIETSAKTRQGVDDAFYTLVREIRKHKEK
KRas G12C, sequence (P01116 1-169 isoform P01116-2 G12C): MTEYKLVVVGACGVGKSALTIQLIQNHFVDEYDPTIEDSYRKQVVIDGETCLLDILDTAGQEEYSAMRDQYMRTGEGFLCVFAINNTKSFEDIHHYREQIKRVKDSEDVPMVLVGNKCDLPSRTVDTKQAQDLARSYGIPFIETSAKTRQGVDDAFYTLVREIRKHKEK
KRas G12D, sequence (P01116 1-169 isoform P01116-2 G12D): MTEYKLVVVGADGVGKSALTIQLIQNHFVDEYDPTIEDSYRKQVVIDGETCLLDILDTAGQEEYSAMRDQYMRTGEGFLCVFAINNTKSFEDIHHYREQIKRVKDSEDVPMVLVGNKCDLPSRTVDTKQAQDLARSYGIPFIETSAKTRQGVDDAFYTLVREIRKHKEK
KRas WT, sequence (P01116 1-169 isoform P01116-2): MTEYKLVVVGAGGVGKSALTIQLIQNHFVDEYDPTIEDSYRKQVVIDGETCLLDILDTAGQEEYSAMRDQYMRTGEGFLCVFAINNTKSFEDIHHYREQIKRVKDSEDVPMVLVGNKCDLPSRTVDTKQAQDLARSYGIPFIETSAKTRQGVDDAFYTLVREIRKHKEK

Row | SMILES | IC50 [13] [nM] | IC50 [14] [nM] | inhibition at 0.01 µM [1] [%] | inhibition at 0.01 µM [15] [%] | inhibition at 0.01 µM [2] [%] | inhibition at 0.01 µM [3] [%] | inhibition at 0.01 µM [16] [%] | inhibition at 0.01 µM [17] [%] | IC50 [4, 19] [nM] | IC50 [5, 20] [nM] | IC50 ([6]; Cisbio pERK HTRF) [nM] | IC50 ([7]; Cisbio pERK HTRF) [nM] | IC50 ([8]; Cisbio pERK HTRF) [nM] | IC50 ([9]; Cisbio pERK HTRF) [nM] | IC50 ([10]; Cisbio pERK HTRF) [nM] | IC50 [18] [nM] | inhibition at 0.1 µM [8] [%] | inhibition at 0.1 µM [9] [%] | inhibition at 0.1 µM [10] [%] | inhibition at 0.1 µM [11] [%] | other results
1 | C=C1CN2CCCC2(COc2nc3c(c(N4CCCC5(CNS(=O)(=O)N5)C4)n2)CCN(c2cc(O)cc4ccc(F)c(CC)c24)C3)C1 (stereo not drawn) [Example 712, 7-(7-(8-ethyl-7-fluoro-3-hydroxynaphthalen-1-yl)-2-((2-methylenetetrahydro-1H-pyrrolizin-7a(5H)-yl)methoxy)-5,6,7,8-tetrahydropyrido[3,4-d]pyrimidin-4-yl)-2-thia-1,3,7-triazaspiro[4.5]decane 2,2-dioxide] | 3 | 3 |  |  |  |  |  |  |  |  |  |  |  |  |  |  |  |  |  |  | IC50 ([1]; TR-FRET displacement): 2 nM; IC50 ([2]; TR-FRET displacement, read-out: Binding to KRas (IC50 nM) G12C): 2 nM; IC50 ([3]; TR-FRET displacement, read-out: Binding to KRas (IC50 nM) G12S): < 2 nM; IC50 ([4]; MKN-1, 3 hr compound incubation): 1.4 nM; IC50 ([5]; 3 hr compound incubation): 806 nM; IC50 [6]: 70 nM; IC50 [7]: 421 nM; IC50 [8]: 216 nM; IC50 [9]: 141 nM; IC50 [10]: 240 nM; IC50 [11]: 30 nM; IC50 [12]: 19 nM
2 | CCc1c(F)ccc2cc(O)cc(N3CCc4c(nc(OC[C@@]56CCCN5C[C@H](F)C6)nc4N4CCCn5nc(C(=O)N6C[C@@H](C)N[C@@H](C)C6)cc5C4)C3)c12 [Example 303, ((3 S,5R)-3,5-dimethylpiperazin-1-yl)(5-(7-(8-ethyl-7-fluoro-3-hydroxynaphthalen-1-yl)-2-(((2R,7aS)-2-fluorohexahydro-wH-pyrrolizin-7a-yl)methoxy)-5,6,7,8-tetrahydropyrido[3,4-d]pyrimidin-4-yl)-5,6,7,8-tetrahydro-4H-pyrazolo[1,5-a][1,4]diazepin-2-yl)methanone] | < 2 | < 2 | 97 | 98 | 100 | 99 | 98 | 98 | 22.5 | 6700 | 2 | 36 | 35 | 73 | 164 | < 2 | 62 | 34 | 3 | 98 | IC50 ([11]; Cisbio pERK HTRF): 8 nM
3 | CCNC(=O)c1cc2n(n1)CCCCN(c1nc(OC[C@@]34CCCN3C[C@H](F)C4)nc3c1CCN(c1cc(O)cc4ccc(F)c(CC)c14)C3)C2 [Example 301, N-ethyl-5-(7-(8-ethyl-7-fluoro-3-hydroxynaphthalen-1-yl)-2-(((2R,7aS)-2-fluorotetrahydro-1H-pyrrolizin-7a(5H)-yl)methoxy)-5,6,7,8-tetrahydropyrido[3,4-d]pyrimidin-4-yl)-4,5,6,7,8,9-hexahydropyrazolo[1,5-a][1,4]diazocine-2-carboxamide] | < 2 | < 2 | 89 | 89 | 99 | 97 | 91 | 94 | 12.9 | 655 | 12 | 6 |  |  |  | < 2 | 85 | 54 | 34 | 102 | 
4 | CCc1c(F)ccc2cc(O)cc(N3CCc4c(nc(OC[C@@]56CCCN5C[C@H](F)C6)nc4N4CCCn5nc(C(=O)N6C7CCCC6C7)cc5C4)C3)c12 [Example 286, 6-azabicyclo[3.1.1]heptan-6-yl(5-(7-(8-ethyl-7-fluoro-3-hydroxynaphthalen-1-yl)-2-(((2R,7aS)-2-fluorohexahydro-1H-pyrrolizin-7a-yl)methoxy)-5,6,7,8-tetrahydropyrido[3,4-d]pyrimidin-4-yl)-5,6,7,8-tetrahydro-4H-pyrazolo[1,5-a][1,4]diazepin-2-yl)methanone] | < 2 | < 2 | 94 | 94 | 98 | 97 | 94 | 95 | 11.9 | 3270 | 4 | 8 | 29 | 49 | 211 | < 2 | 87 | 66 | 46 | 97 | inhibition at 0.1 µM [6]: 96%; inhibition at 0.1 µM [7]: 80%; IC50 ([11]; Cisbio pERK HTRF): 6 nM

Continued, in another order:

Row | IC50 [13] [nM] | IC50 [14] [nM] | inhibition at 0.01 µM [1] [%] | inhibition at 0.01 µM [15] [%] | inhibition at 0.01 µM [2] [%] | inhibition at 0.01 µM [3] [%] | inhibition at 0.01 µM [16] [%] | inhibition at 0.01 µM [17] [%] | IC50 [4, 19] [nM] | IC50 [5, 20] [nM] | IC50 ([6]; Cisbio pERK HTRF) [nM] | IC50 ([7]; Cisbio pERK HTRF) [nM] | IC50 ([8]; Cisbio pERK HTRF) [nM] | IC50 ([9]; Cisbio pERK HTRF) [nM] | IC50 ([10]; Cisbio pERK HTRF) [nM] | IC50 [18] [nM] | SMILES | inhibition at 0.1 µM [8] [%] | inhibition at 0.1 µM [9] [%] | inhibition at 0.1 µM [10] [%] | inhibition at 0.1 µM [11] [%] | other results
5 | < 2 | < 2 | 95 | 96 | 98 | 98 | 94 | 96 | 14.4 | 3980 | 3 | 5 | 15 | 22 | 85 | < 2 | CCc1c(F)ccc2cc(O)cc(N3CCc4c(nc(OC[C@@]56CCCN5C[C@H](F)C6)nc4N4CCCn5nc(C(=O)N(C)C6CCC6)cc5C4)C3)c12 [Example 385, N-cyclobutyl-5-(7-(8-ethyl-7-fluoro-3-hydroxynaphthalen-1-yl)-2-(((2R,7aS)-2-fluorohexahydro-1H-pyrrolizin-7a-yl)methoxy)-5,6,7,8-tetrahydropyrido[3,4-d]pyrimidin-4-yl)-N-methyl-56,7,8-tetrahydro-4H-pyrazolo[1,5-a][1,4]diazepine-2-carboxamide] | 74 |  |  | 94 | IC50 ([11]; Cisbio pERK HTRF): 2 nM
6 | 3 | < 2 | 89 | 85 | 96 | 93 | 91 | 93 | 26.3 | 9490 | 9 | 20 | 27 | 49 | 167 | < 2 | CCc1c(F)ccc2cc(O)cc(N3CCc4c(nc(OC[C@@]56CCCN5C[C@H](F)C6)nc4N4CCCn5nc(C(=O)N6CC7CCC(C7)C6)cc5C4)C3)c12 [Example 302, 3-azabicyclo[3.2.1]octan-3-yl(5-(7-(8-ethyl-7-fluoro-3-hydroxynaphthalen-1-yl)-2-(((2R,7aS)-2-fluorohexahydro-1H-pyrrolizin-7a-yl)methoxy)-5,6,7,8-tetrahydropyrido[3,4-d]pyrimidin-4-yl)-5,6,7,8-tetrahydro-4H-pyrazolo[1,5-a][1,4]diazepin-2-yl)methanone] | 66 | 66 | 33 | 92 | inhibition at 0.1 µM [6]: 91%; inhibition at 0.1 µM [7]: 70%; IC50 ([11]; Cisbio pERK HTRF): 6 nM
